Assays:
[1] = molecular target: T1, Capsid scaffolding protein (Human cytomegalovirus (strain AD169) (HHV-5) (Human herpesvirus 5), UniProt P16753); assay: Potency against human cytomegalovirus protease in HCMV pNA assay; set-up: species or system Human herpesvirus 5 strain AD169
T1 sequence (P16753 whole entry): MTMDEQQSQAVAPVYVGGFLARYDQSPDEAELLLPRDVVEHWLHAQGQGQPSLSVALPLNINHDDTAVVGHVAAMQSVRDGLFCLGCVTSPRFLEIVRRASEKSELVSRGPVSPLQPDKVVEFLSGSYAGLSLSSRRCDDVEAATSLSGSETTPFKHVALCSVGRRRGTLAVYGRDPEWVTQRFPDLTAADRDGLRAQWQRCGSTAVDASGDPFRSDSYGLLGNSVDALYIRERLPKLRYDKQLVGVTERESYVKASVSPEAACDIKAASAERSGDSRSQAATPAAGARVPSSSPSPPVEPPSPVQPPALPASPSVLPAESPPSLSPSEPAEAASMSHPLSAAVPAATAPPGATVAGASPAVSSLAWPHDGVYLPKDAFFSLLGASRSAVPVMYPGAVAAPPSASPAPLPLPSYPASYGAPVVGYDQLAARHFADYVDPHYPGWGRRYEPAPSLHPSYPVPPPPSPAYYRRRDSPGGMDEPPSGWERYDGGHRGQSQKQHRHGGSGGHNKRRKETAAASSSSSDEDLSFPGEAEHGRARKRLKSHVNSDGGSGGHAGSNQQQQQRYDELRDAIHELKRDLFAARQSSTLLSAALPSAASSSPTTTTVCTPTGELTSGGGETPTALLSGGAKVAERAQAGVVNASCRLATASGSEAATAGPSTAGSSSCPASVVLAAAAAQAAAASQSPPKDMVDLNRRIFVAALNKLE

[2] = molecular target: T1, Capsid scaffolding protein; assay: Inhibition of human cytomegalovirus protease in HCMV pNA assay.; set-up: species or system Human herpesvirus 5 strain AD169
Vero = assay: Growth inhibition of cytomegalovirus in Vero cells; format: functional, Human betaherpesvirus 5
Human betaherpesvirus 5 [3] = assay: Concentration required to inhibit human cytomegalovirus HCMV-AD169 in antiviralplaque reduction assay; format: functional, organism-based
[4] = Compound was tested for its stability in human plasma; format: ADME, organism-based
Human betaherpesvirus 5 [5] = assay: Concentration required to inhibit human cytomegalovirus HCMV-AD169 in ELISA assay

SMILES	Ki [1] [nM]	IC50 [2] [nM]	CCID50 (Vero) [µM]	IC50 (Human betaherpesvirus 5 [3]) [nM]	half-life [4] [h]	IC50 (Human betaherpesvirus 5 [5]) [nM]
COc1ccc2nc(N3C(=O)[C@@H](C)[C@@H]4[C@@H]3CCN4C(=O)[C@@H]3CCCN3C(=O)Nc3ccc(C(C)C)cc3)sc2c1	43	220	>500	3200		
C[C@@H]1C(=O)N(C(=O)C2CC2)[C@H]2CCN(C(=O)[C@@H]3CCCN3S(=O)(=O)c3ccc4ccccc4c3)[C@H]12	40	< 190				
CC(C)c1ccc(NC(=O)N2CCC[C@H]2C(=O)N2CC[C@H]3[C@H]2[C@H](C)C(=O)N3c2nc3ccc(F)cc3s2)cc1		360	298	12300	> 24	
C[C@@H]1C(=O)N(C(=O)C2CC2)[C@H]2CCN(C(=O)[C@@H]3CCCN3S(=O)(=O)Cc3ccccc3)[C@H]12		2100				
C[C@@H]1C(=O)N(C(=O)C2CC2)[C@H]2CCN(C(=O)[C@@H]3CCCN3C(=O)c3cccc4ccccc34)[C@H]12		890				
CC(C)c1ccccc1NC(=O)N1CCC[C@H]1C(=O)N1CC[C@H]2[C@H]1[C@H](C)C(=O)N2C(=O)C1CC1		470				
CCCOc1ccc(C(=O)N2CCC[C@H]2C(=O)N2CC[C@H]3[C@H]2[C@H](C)C(=O)N3C(=O)C2CC2)cc1	79	540				
C[C@@H]1C(=O)N(C(=O)C2CC2)[C@H]2CCN(C(=O)[C@@H]3CCCN3C(=O)c3ccc(Cl)cc3)[C@H]12		1400				
CC(C)c1ccc(NC(=O)N2CCC[C@H]2C(=O)N2CC[C@H]3[C@H]2[C@H](C)C(=O)N3C(=O)C2CC2)cc1	2	200	274		0.5	31000
C[C@@H]1C(=O)N(C(=O)C2CC2)[C@H]2CCN(C(=O)[C@@H]3CCCN3S(=O)(=O)c3ccc(-c4ccc(Cl)cc4)cc3)[C@H]12		840				
COc1ccc2sc(N3C(=O)[C@@H](C)[C@@H]4[C@@H]3CCN4C(=O)[C@@H]3CCCN3C(=O)Nc3ccc(C(C)C)cc3)nc2c1		230	>500	2400		
CC(C)c1ccc(NC(=O)N2CCC[C@H]2C(=O)N2CC[C@H]3[C@H]2[C@H](C)C(=O)N3c2nc3cc(S(=O)(=O)C(F)F)ccc3s2)cc1		210	>500	2200		
C[C@@H]1C(=O)N(C(=O)C2CC2)[C@H]2CCN(C(=O)[C@@H]3CCCN3C(=O)Nc3ccc(C(F)(F)F)cc3)[C@H]12	15	230				
CCCOc1ccc(S(=O)(=O)N2CCC[C@H]2C(=O)N2CC[C@H]3[C@H]2[C@H](C)C(=O)N3C(=O)C2CC2)cc1	33	230				
CC(C)c1ccc(NC(=O)N2CCC[C@H]2C(=O)N2CC[C@H]3[C@H]2[C@H](C)C(=O)N3c2nc3cc(Cl)ccc3s2)cc1		460	266	49000		
Nc1nc2c(ncn2COC(CO)CO)c(=O)[nH]1 [GANCICLOVIR]			>500	720		
CC(C)c1ccc(NC(=O)N2CCC[C@H]2C(=O)N2CC[C@H]3[C@H]2[C@H](C)C(=O)N3C(=O)C2[C@@H](C)[C@H]2C)cc1 (some centres not stated)		1800	375	> 30000	1.5	
CCCOc1ccc(-c2ccc(S(=O)(=O)N3CCC[C@H]3C(=O)N3CC[C@H]4[C@H]3[C@H](C)C(=O)N4C(=O)C3CC3)cc2)cc1	33					
C[C@@H]1C(=O)N(C(=O)C2CC2)[C@H]2CCN(C(=O)[C@@H]3CCCN3S(=O)(=O)c3cccc4ccccc34)[C@H]12	60	370				
C[C@@H]1C(=O)N(C(=O)C2CC2)[C@H]2CCN(C(=O)[C@@H]3CCCN3C(=O)Nc3cccc4ccccc34)[C@H]12		650				
COc1ccc2nc(N3C(=O)[C@@H](C)[C@@H]4[C@@H]3CCN4C(=O)[C@@H]3CCCN3C(=O)Nc3ccc(C(C)C)cc3)sc2n1		870	>500	31000	9	
CCCOc1ccc(-c2ccc(NC(=O)N3CCC[C@H]3C(=O)N3CC[C@H]4[C@H]3[C@H](C)C(=O)N4C(=O)C3CC3)cc2)cc1	9					
C[C@@H]1C(=O)N(C(=O)C2CC2)[C@H]2CCN(C(=O)[C@@H]3CCCN3C(=O)Nc3ccc(Cl)cc3)[C@H]12	38	260				

SMILES	Ki [1] [nM]	IC50 [2] [nM]	CCID50 (Vero) [µM]	IC50 (Human betaherpesvirus 5 [3]) [nM]	half-life [4] [h]	IC50 (Human betaherpesvirus 5 [5]) [nM]
C[C@@H]1C(=O)N(C(=O)C2CC2)[C@H]2CCN(C(=O)[C@@H]3CCCN3C(=O)c3ccc(-c4ccc(Cl)cc4)cc3)[C@H]12		1400				
C[C@@H]1C(=O)N(C(=O)C2CC2)[C@H]2CCN(C(=O)[C@@H]3CCCN3C(=O)Nc3cccc(C(F)(F)F)c3)[C@H]12		590				
CC(C)Oc1ccc(S(=O)(=O)N2CCC[C@H]2C(=O)N2CC[C@H]3[C@H]2[C@H](C)C(=O)N3C(=O)C2CC2)cc1	39	400				
C[C@@H]1C(=O)N(C(=O)C2CC2)[C@H]2CCN(C(=O)[C@@H]3CCCN3C(=O)Nc3ccccc3)[C@H]12		1400				
C[C@@H]1C(=O)N(C(=O)C2CC2)[C@H]2CCN(C(=O)[C@@H]3CCCN3C(=O)c3ccc(-c4ccccc4)cc3)[C@H]12	21	300				
CC(C)c1ccc(S(=O)(=O)N2CCC[C@H]2C(=O)N2CC[C@H]3[C@H]2[C@H](C)C(=O)N3C(=O)C2CC2)cc1	99	460				
C[C@@H]1C(=O)N(C(=O)C2CC2)[C@H]2CCN(C(=O)[C@@H]3CCCN3S(=O)(=O)c3ccccc3)[C@H]12		1800				
COc1ccc(C)c2sc(N3C(=O)[C@@H](C)[C@@H]4[C@@H]3CCN4C(=O)[C@@H]3CCCN3C(=O)Nc3ccc(C(C)C)cc3)nc12		1100	126	17400	> 24	
C[C@@H]1C(=O)N(C(=O)C2CC2)[C@H]2CCN(C(=O)[C@@H]3CCCN3C(=O)Nc3cccc(Cl)c3)[C@H]12		650				
CCCOc1ccc(-c2ccc(C(=O)N3CCC[C@H]3C(=O)N3CC[C@H]4[C@H]3[C@H](C)C(=O)N4C(=O)C3CC3)cc2)cc1	79					
C[C@@H]1C(=O)N(C(=O)C2CC2)[C@H]2CCN(C(=O)[C@@H]3CCCN3S(=O)(=O)c3cccc4cc(N(C)C)ccc34)[C@H]12		1100				
CC(C)c1ccc(NC(=O)N2CCC[C@H]2C(=O)N2CC[C@H]3[C@H]2[C@H](C)C(=O)N3c2nc3c(Cl)cccc3s2)cc1		290	>500	17100		
CC(C)c1ccc(NC(=O)N2CCC[C@H]2C(=O)N2CC[C@H]3[C@H]2[C@H](C)C(=O)N3c2nc3ccc([N+](=O)[O-])cc3s2)cc1	25	390	128	8700	24	
C[C@@H]1C(=O)N(C(=O)C2CC2)[C@H]2CCN(C(=O)[C@@H]3CCCN3S(=O)(=O)c3ccc(Cl)cc3)[C@H]12		840				
CC(C)c1ccc(NC(=O)N2CCC[C@H]2C(=O)N2CC[C@H]3[C@H]2[C@H](C)C(=O)N3C(=O)C2C(C)(C)C2(C)C)cc1		> 20000	38	> 35000	16	
CCCOc1ccc(NC(=O)N2CCC[C@H]2C(=O)N2CC[C@H]3[C@H]2[C@H](C)C(=O)N3C(=O)C2CC2)cc1	9	210				
CC(C)c1ccc(C(=O)N2CCC[C@H]2C(=O)N2CC[C@H]3[C@H]2[C@H](C)C(=O)N3C(=O)C2CC2)cc1		390				
COc1cccc2sc(N3C(=O)[C@@H](C)[C@@H]4[C@@H]3CCN4C(=O)[C@@H]3CCCN3C(=O)Nc3ccc(C(C)C)cc3)nc12		240	89	5200		
CC(C)Oc1ccc(NC(=O)N2CCC[C@H]2C(=O)N2CC[C@H]3[C@H]2[C@H](C)C(=O)N3C(=O)C2CC2)cc1	18	180				
C[C@@H]1C(=O)N(C(=O)C2CC2)[C@H]2CCN(C(=O)[C@@H]3CCCN3C(=O)Nc3ccc(-c4ccc(Cl)cc4)cc3)[C@H]12		260				
CC(C)c1ccc(NC(=O)N2CCC[C@H]2C(=O)N2CC[C@H]3[C@H]2[C@H](C)C(=O)N3c2ccc([N+](=O)[O-])cc2)cc1		8700	69	> 70000	> 24	
CC(C)c1ccc(NC(=O)N2CCC[C@H]2C(=O)N2CC[C@H]3[C@H]2[C@H](C)C(=O)N3c2nccs2)cc1	446	1500	280	> 30000	> 24	
Cc1c(C(=O)N2CCC[C@H]2C(=O)N2CC[C@H]3[C@H]2[C@H](C)C(=O)N3C(=O)C2CC2)sc2ccc(Cl)cc12	2	190				
